Our source for the Ki values is patent publication US7125990B2, “Imidazolyl derivatives as corticotropin releasing factor inhibitors” (Bristol-Myers Squibb COmpany, priority 2001, dated 2006).

Bounds are passed on as bounds.

The target of this assay is T1, CRF1 receptors (Homo sapiens, UniProt P34998).
T1 construct: endogenous in cells; host or cells: IMR-32 cells, transformed with 2.5 µM 5'-bromo-2'-deoxyuridine for 10 days; membrane preparation
T1 sequence (P34998 24-415): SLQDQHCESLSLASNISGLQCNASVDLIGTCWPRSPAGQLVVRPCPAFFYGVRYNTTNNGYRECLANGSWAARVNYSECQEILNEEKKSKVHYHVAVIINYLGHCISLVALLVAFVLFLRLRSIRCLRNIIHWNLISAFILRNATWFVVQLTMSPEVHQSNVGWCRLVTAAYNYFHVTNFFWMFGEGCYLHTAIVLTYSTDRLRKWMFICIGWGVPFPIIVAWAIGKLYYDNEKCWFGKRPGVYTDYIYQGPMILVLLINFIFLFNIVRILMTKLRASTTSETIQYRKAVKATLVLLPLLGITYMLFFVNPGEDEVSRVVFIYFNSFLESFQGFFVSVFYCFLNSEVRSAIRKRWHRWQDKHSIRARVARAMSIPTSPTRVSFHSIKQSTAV
As to the kind of experiment: CRF1 receptor radioligand binding assay ([125I]-oCRF competition, IMR-32 cell membranes). As to conditions: IMR-32 cell membranes, [125I]-oCRF 100 pM; read-out: Ki (CRF-1R). As for the experimental part:
CRF1 receptor antagonists, by occupying the same receptors, blocks the accessibility of the receptors to CRF, a hypothalamic factor mediating body's responses to physiological and psychological stress. The following radioligand binding assay examines the ability of the antagonists to bind the CRF1 receptors by assessing their ability to compete with binding of CRF to the receptors in cell membrane.
Tissue culture and membrane preparation. IMR-32 cells were grown at 37° C. in 5% CO2 as a monolayer in medium consisting of MEM supplemented with 10% heat-inactivated fetal bovine serum, 0.1 mM nonessential amino acids, 1 mM sodium pyruvate and 2 mM L-glutamine. […] After transformation, cells were rinsed twice with phosphate-buffered saline, and incubated for 10–15 min. at 4° C. in homogenization buffer consisting of 50 mM Tris (pH 7.2), 10 mM MgCl2 and 2 mM EGTA. Cells were transferred from plates to polypropylene tubes (16×100 mm), homogenized and centrifuged at 32,000×g for 15 min. Pellets were resuspended by homogenization in buffer and centrifuged at 32,000×g for 15 min. Pellets were resuspended in homogenization buffer then stored at −80° C. until needed.
Radioligand binding assays. […] The assay buffer consisted of 50 mM Tris (pH 7.2), 10 mM MgCl2, 0.5% BSA, 0.005% Triton X-100, 10 μg/mL aprotinin and 10 μg/mL leupeptin. Assays were stopped by addition of ice-cold wash buffer (50 mM Tris, pH 7.4 and 0.2% BSA). Filtration over glass fiber filters (Whatman GF/B) previously soaked in 50 mM Tris, pH 7.2 and 1% BSA was carried out using a Brandel cell harvester. Filters were washed with 10 mL of ice-cold wash buffer. Non-specific binding was defined with 10 μM oCRF. IC50 values for oCRF and test compounds were calculated by nonlinear regression using a one-site binding curve (GraphPad Prism).
As a reminder, the Ki is a measure of affinity in units of concentration, obtained from inhibition or displacement. Take `CCCCN(CC)Cc1c(C(F)(F)F)nc2n(-c3c(C)cc(C)cc3C)c3ccccc3n12` [Example 170, Butyl-ethyl-[2-trifluoromethyl-8-(2,4,6-trimethyl-phenyl)-8H-1,3a,8-triaza-cyclopenta[α]inden-3-ylmethyl]-amine]: the Ki is under 1 µM.
The same measure for `Cc1cc(C)c(-n2c3ncccc3n3c(CN(C)Cc4ccccc4)c(C(F)(F)F)nc23)c(C)c1` [Example 228, Benzyl-methyl-[2-trifluoromethyl-8-(2,4,6-trimethyl-phenyl)-8H-1,3a,7,8-tetraaza-cyclopenta[α]inden-3-ylmethyl]-amine]: under 1 µM; for `CCCN(Cc1c(C(F)(F)F)nc2n(-c3ccc(C(C)C)cc3Br)c3ccccc3n12)CC(F)(F)F` [Example 200, [8-(2-Bromo-4-isopropyl-phenyl)-2-trifluoromethyl-8H-1,3a,8-triaza-cyclopenta[α]inden-3-ylmethyl]-propyl-(2,2,2-trifluoro-ethyl)-amine]: under 10 µM.
In the case of `CCCN(CCC1CC1)Cc1c(C(F)(F)F)nc2n(-c3c(C)cc(C)cc3C)c3ccccc3n12` [Example 164, (2-Cyclopropyl-ethyl)-propyl-[2-trifluoromethyl-8-(2,4,6-trimethyl-phenyl)-8H-1,3a,8-triaza-cyclopenta[α]inden-3-ylmethyl]-amine], the Ki was under 1 µM.
The same measure for `Cc1cc(C)c(-n2c(Cl)cn3c(CN(CCC(F)(F)F)Cc4ccc(Cl)cc4)c(C(F)(F)F)nc23)c(C)c1` [Example 336, (4-Chloro-benzyl)-[6-chloro-2-trifluoromethyl-7-(2,4,6-trimethyl-phenyl)-7H-imidazo[1,2-a]imidazol-3-ylmethyl]-(3,3,3-trifluoro-propyl)-amine]: under 0.01 µM; for `CCCCN(C)Cc1c(C(F)(F)F)nc2n1CCCN2c1c(C)cc(C)cc1Cl` [Example 104, Butyl-[8-(2-chloro-4,6-dimethyl-phenyl)-2-trifluoromethyl-5,6,7,8-tetrahydro-imidazo[1,2-a]pyrimidin-3-ylmethyl]-methyl-amine]: under 1 µM.
Consider `C=CCN(CC=C)C(=O)c1c(CC)nc2n1CCN2c1c(C)cc(C)cc1C` [Example 22, 2-Ethyl-7-(2,4,6-trimethyl-phenyl)-6,7-dihydro-5H-imidazo[1,2-a]imidazole-3-carboxylic acid diallylamide], for which the Ki is under 10 µM.
As for `Cc1cc(C)c(N2CCCn3c2nc(C(F)(F)F)c3CN(C)Cc2ccccc2)c(Cl)c1` [Example 107, Benzyl-[8-(2-chloro-4,6-dimethyl-phenyl)-2-trifluoromethyl-5,6,7,8-tetrahydro-imidazo[1,2-a]pyrimidin-3-ylmethyl]-methyl-amine], the figure is under 1 µM; as for `CCN(CCc1ccccc1)Cc1c(C(F)(F)F)nc2n(-c3c(C)cc(C)cc3C)c3ccccc3n12` [Example 163, Ethyl-phenethyl-[2-trifluoromethyl-8-(2,4,6-trimethyl-phenyl)-8H-1,3a,8-triaza-cyclopenta[α]inden-3-ylmethyl]-amine], under 1 µM.
For the compound `Cc1cc(C)c(-n2c3ccccc3n3c(CN(CC4CCC4)CC(F)(F)F)c(C(F)(F)F)nc23)c(C)c1` [Example 156, Cyclobutylmethyl-(2,2,2-trifluoro-ethyl)-[2-trifluoromethyl-8-(2,4,6-trimethyl-phenyl)-8H-1,3a,8-triaza-cyclopenta[α]inden-3-ylmethyl]-amine], the inhibitory constant (Ki) is under 0.1 µM.
As for `C=CCN(CCC)Cc1c(C(F)(F)F)nc2n(-c3c(C)cc(C)cc3C)c3ncccc3n12` [Example 220, Allyl-propyl-[2-trifluoromethyl-8-(2,4,6-trimethyl-phenyl)-8H-1,3a,7,8-tetraaza-cyclopenta[α]inden-3-ylmethyl]-amine], the Ki is under 1 µM.
As for `CCCN(CCC)Cc1c(C(F)(F)F)nc2n1CCCN2c1c(C)cc(C)cc1Cl` [Example 109, [8-(2-Chloro-4,6-dimethyl-phenyl)-2-trifluoromethyl-5,6,7,8-tetrahydro-imidazo[1,2-a]pyrimidin-3-ylmethyl]-dipropyl-amine], the figure is under 1 µM; as for `CCCN(CC1CC1)C(=O)c1c(C)nc2n(-c3c(C)cc(C)cc3C)c3ccc(F)cc3n12` [Example 139, 5-Fluoro-2-methyl-8-(2,4,6-trimethyl-phenyl)-8H-1,3a,8-triaza-cyclopenta[α]indene-3-carboxylic acid cyclopropylmethyl-propyl-amide], under 10 µM.
The same measure for `Cc1cc(C)c(-n2c3ccccc3n3c(CN(CCC(F)(F)F)CC4CC4)c(C(F)(F)F)nc23)c(C)c1` [Example 152, Cyclopropylmethyl-[2-trifluoromethyl-8-(2,4,6-trimethyl-phenyl)-8H-1,3a,8-triaza-cyclopenta[α]inden-3-ylmethyl]-(3,3,3-trifluoro-propyl)-amine]: under 0.1 µM.
The same measure for `Cc1cc(C)c(-n2c(Cl)cn3c(CN(CC4CC4)CC(F)(F)F)c(C(F)(F)F)nc23)c(C)c1` [Example 304, [6-Chloro-2-trifluoromethyl-7-(2,4,6-trimethyl-phenyl)-7H-imidazo[1,2-a]imidazol-3-ylmethyl]-cyclopropylmethyl-(2,2,2-trifluoro-ethyl)-amine]: under 0.01 µM; for `CCCN(CCc1ccccc1)Cc1c(C(F)(F)F)nc2n(-c3ccc(Cl)cc3Cl)c3ccccc3n12` [Example 182, [8-(2,4-Dichloro-phenyl)-2-trifluoromethyl-8H-1,3a,8-triaza-cyclopenta[α]inden-3-ylmethyl]-phenethyl-propyl-amine]: under 10 µM; for `CCCN(Cc1c(C(F)(F)F)nc2n1CCCN2c1c(C)cc(C)cc1C)CC(F)(F)C(F)(F)F` [Example 80, (2,2,3,3,3-Pentafluoro-propyl)-propyl-[2-trifluoromethyl-8-(2,4,6-trimethyl-phenyl)-5,6,7,8-tetrahydro-imidazo[1,2-a]pyrimidin-3-ylmethyl]-amine]: under 1 µM.
As to `CCN(Cc1ccc(Cl)c(Cl)c1)Cc1c(C(F)(F)F)nc2n(-c3c(C)cc(C)cc3C)c(Cl)cn12` [Example 315, [6-Chloro-2-trifluoromethyl-7-(2,4,6-trimethyl-phenyl)-7H-imidazo[1,2-a]imidazol-3-ylmethyl]-(3,4-dichloro-benzyl)-ethyl-amine], the Ki is under 1 µM.
As for `C=CCN(CC=C)Cc1c(CC)nc2n(-c3c(C)cc(C)cc3C)c3ncccc3n12` [Example 251, Diallyl-[2-ethyl-8-(2,4,6-trimethyl-phenyl)-8H-1,3a,7,8-tetraaza-cyclopenta[α]inden-3-ylmethyl]-amine], the figure is under 1 µM; as for `CCc1nc2n(-c3c(C)cc(C)cc3C)c3ncccc3n2c1CN(CC)CCc1ccccc1` [Example 248, Ethyl-[2-ethyl-8-(2,4,6-trimethyl-phenyl)-8H-1,3a,7,8-tetraaza-cyclopenta[α]inden-3-ylmethyl]-phenethyl-amine], under 0.1 µM.
For `CCc1nc2n(c1C(=O)N(CC1CC1)CC(F)(F)F)CCN2c1c(C)cc(C)cc1Br` [Example 44, 7-(2-Bromo-4,6-dimethyl-phenyl)-2-ethyl-6,7-dihydro-5H-imidazo[1,2-a]imidazole-3-carboxylic acid cyclopropylmethyl-(2,2,2-trifluoro-ethyl)-amide], the Ki is under 0.1 µM.
As for `CCCN(CCC(F)(F)F)Cc1c(C(F)(F)F)nc2n(-c3c(C)cc(C)cc3C)c3ccccc3n12` [Example 157, Propyl-[2-trifluoromethyl-8-(2,4,6-trimethyl-phenyl)-8H-1,3a,8-triaza-cyclopenta[α]inden-3-ylmethyl]-(3,3,3-trifluoro-propyl)-amine], the figure is under 0.1 µM.
As for `FC(F)(F)c1nc2n(-c3ccc(Cl)cc3Cl)c3ccccc3n2c1CN(CC1CC1)CC(F)(F)C(F)(F)F` [Example 183, Cyclopropylmethyl-[8-(2,4-dichloro-phenyl)-2-trifluoromethyl-8H-1,3a,8-triaza-cyclopenta[α]inden-3-ylmethyl]-(2,2,3,3,3-pentafluoro-propyl)-amine], the figure is under 10 µM.
For `CCc1nc2n(c1C(=O)N(CCC(F)(F)F)Cc1cccc(F)c1)CCN2c1c(C)cc(C)cc1C` [Example 24, 2-Ethyl-7-(2,4,6-trimethyl-phenyl)-6,7-dihydro-5H-imidazo[1,2-a]imidazole-3-carboxylic acid (3-fluoro-benzyl)-(3,3,3-trifluoro-propyl)-amide], the Ki is under 10 µM.
